Measurements: patent publication US12077503B2, “Substituted cyclic amides and their use as herbicides” (FMC CORPORATION, priority 2015, dated 2024)

Assays:
Assay type in all cases: in vivo
[1] = test system: Kochia (Kochia scoparia); assay: Test A preemergence; details: for Plant response rating, Kochia: 125 g ai/ha; for Kochia plant response rating (0 to 100 scale, 0 is no effect, 100 is complete control): 500 g ai/ha, visual injury approx. 10 d
Procedure, shortened: (§1)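 Each rating is a visual injury score from 0 to 100 given about 10 d after treatment, judged against untreated controls kept alongside in the greenhouse. In loam soil–sand blend, seeds got a preemergence directed soil spray, while postemergence plants were 2 to 10 cm tall at spraying.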

[2] = test system: barnyardgrass (Echinochloa crus-galli); assay: Test A preemergence; details: for Plant response rating, Barnyardgrass: 125 g ai/ha; for Barnyardgrass plant response rating (0 to 100 scale, 0 is no effect, 100 is complete control): 500 g ai/ha, visual injury approx. 10 d
Procedure, shortened: as §1

[3] = test system: giant foxtail (Setaria faberii); assay: Test A preemergence; details: for Plant response rating, Foxtail, Giant: 125 g ai/ha; for Foxtail, Giant plant response rating (0 to 100 scale, 0 is no effect, 100 is complete control): 500 g ai/ha, visual injury approx. 10 d
Procedure, shortened: as §1

[4] = test system: pigweed (Amaranthus retroflexus); assay: Test A preemergence; details: for Plant response rating, Pigweed: 125 g ai/ha; for Pigweed plant response rating (0 to 100 scale, 0 is no effect, 100 is complete control): 500 g ai/ha, visual injury approx. 10 d
[5] = test system: ragweed (common ragweed, Ambrosia elatior); assay: Test A preemergence; details: for Plant response rating, Ragweed: 125 g ai/ha; for Ragweed plant response rating (0 to 100 scale, 0 is no effect, 100 is complete control): 500 g ai/ha, visual injury approx. 10 d
Procedure, shortened: as §1

[6] = test system: ryegrass, Italian (Italian ryegrass, Lolium multiflorum); assay: Test A preemergence; details: for Plant response rating, Ryegrass, Italian: 125 g ai/ha; for Ryegrass, Italian plant response rating (0 to 100 scale, 0 is no effect, 100 is complete control): 500 g ai/ha, visual injury approx. 10 d
Procedure, shortened: as §1

[7] = test system: Galium (catchweed bedstraw, Galium aparine); assay: Test A postemergence
Procedure, shortened: as §1

[8] = test system: Kochia (Kochia scoparia); assay: Test A postemergence
Procedure, shortened: as §1

[9] = test system: barnyardgrass (Echinochloa crus-galli); assay: Test A postemergence
Procedure, shortened: as §1

[10] = test system: blackgrass (Alopecurus myosuroides); assay: Test A postemergence
Procedure, shortened: as §1

[11] = test system: corn (Zea mays); assay: Test A postemergence
Procedure, shortened: as §1

[12] = test system: giant foxtail (Setaria faberii); assay: Test A postemergence
Procedure, shortened: as §1

[13] = test system: pigweed (Amaranthus retroflexus); assay: Test A postemergence
Procedure, shortened: as §1

[14] = test system: ragweed (common ragweed, Ambrosia elatior); assay: Test A postemergence
Procedure, shortened: as §1

[15] = test system: ryegrass, Italian (Italian ryegrass, Lolium multiflorum); assay: Test A postemergence
Procedure, shortened: as §1

[16] = test system: wheat (Triticum aestivum); assay: Test A postemergence
Procedure, shortened: as §1

[17] = test system: barnyardgrass (Echinochloa crus-galli); assay: Test B flooded paddy test; details: Flood, 250 g ai/ha; 0 to 100 scale where 0 is no effect and 100 is complete control; 13 to 15 d
Procedure, shortened: (§2)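 Rating scale 0–100 (visual, vs untreated controls) after a 13–15 d greenhouse period; application to the flood layer, 3 cm above soil and maintained; plants at 2-leaf stage when treated.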

[18] = test system: ducksalad (Heteranthera limosa); assay: Test B flooded paddy test; details: Flood, 250 g ai/ha; 0 to 100 scale where 0 is no effect and 100 is complete control; 13 to 15 d
Procedure, shortened: as §2

[19] = test system: rice (Oryra sativa); assay: Test B flooded paddy test; details: Flood, 250 g ai/ha; 0 to 100 scale where 0 is no effect and 100 is complete control; 13 to 15 d
Procedure, shortened: as §2

[20] = test system: sedge, umbrella (small-flower umbrella sedge, Cyperus difformis); assay: Test B flooded paddy test; details: Flood, 250 g ai/ha; 0 to 100 scale where 0 is no effect and 100 is complete control; 13 to 15 d
Procedure, shortened: as §2

[21] = preemergence, 0 to 100 scale (0 no effect, 100 complete control)
[22] = 125 g ai/ha, postemergence, visual injury rating on 0 to 100 scale (0 no effect, 100 complete control), approx. 10 d
[23] = 500 g ai/ha, postemergence, 0 to 100 scale, 0 no effect, 100 complete control
[24] = Preemergence, visual injury after approximately 10 d, 0 to 100 scale where 0 is no effect and 100 is complete control
[25] = 125 g ai/ha, postemergence, visual rating after approx. 10 d, 0 to 100 scale (0 no effect, 100 complete control)
[26] = Postemergence, 500 g ai/ha, 0 to 100 scale where 0 is no effect and 100 is complete control

CN1CC(c2ccc(Cl)cc2)C(C(=O)Nc2ccccc2S(C)(=O)=O)C1=O (centres unmarked) [Compound 435]
Plant response rating, Kochia [1, 21]: 60
Kochia plant response rating (0 to 100 scale, 0 is no effect, 100 is complete control) ([1]; Preemergence): 80
Plant response rating, Barnyardgrass [2, 21]: 80
Barnyardgrass plant response rating (0 to 100 scale, 0 is no effect, 100 is complete control) ([2]; Preemergence): 90
Plant response rating, Foxtail, Giant [3, 21]: 90
Foxtail, Giant plant response rating (0 to 100 scale, 0 is no effect, 100 is complete control) ([3]; Preemergence): 90
Plant response rating, Pigweed [4, 21]: 60
Pigweed plant response rating (0 to 100 scale, 0 is no effect, 100 is complete control) ([4]; Preemergence): 80
Plant response rating, Ragweed [5, 21]: 20
Ragweed plant response rating (0 to 100 scale, 0 is no effect, 100 is complete control) ([5]; Preemergence): 70
Plant response rating, Ryegrass, Italian [6, 21]: 0
Ryegrass, Italian plant response rating (0 to 100 scale, 0 is no effect, 100 is complete control) ([6]; Preemergence): 20
Galium plant response rating [7, 22]: 50
Plant response rating, Galium [7, 23]: 60
Kochia plant response rating [8, 22]: 20
Plant response rating, Kochia [8, 23]: 50
Barnyardgrass plant response rating [9, 22]: 80
Plant response rating, Barnyardgrass [9, 23]: 90
Blackgrass plant response rating [10, 22]: 30
Plant response rating, Blackgrass [10, 23]: 50
Corn plant response rating [11, 22]: 0
Plant response rating, Corn [11, 23]: 20
Foxtail, Giant plant response rating [12, 22]: 80
Plant response rating, Foxtail, Giant [12, 23]: 80
Pigweed plant response rating [13, 22]: 20
Plant response rating, Pigweed [13, 23]: 50
Ragweed plant response rating [14, 22]: 40
Plant response rating, Ragweed [14, 23]: 60
Ryegrass, Italian plant response rating [15, 22]: 40
Plant response rating, Ryegrass, Italian [15, 23]: 40
Wheat plant response rating [16, 22]: 0
Plant response rating, Wheat [16, 23]: 60
Plant response rating, Barnyardgrass [17]: 60
Plant response rating, Ducksalad [18]: 90
Plant response rating, Rice [19]: 0
Plant response rating, Sedge, Umbrella [20]: 0

O=C1NCC(c2cccc(C(F)(F)F)c2F)C1C(=O)Nc1ccccc1F (centres unmarked) [Compound 590]
Plant response rating, Kochia [1, 24]: 0
Kochia plant response rating (0 to 100 scale, 0 is no effect, 100 is complete control) ([1]; Preemergence): 20
Plant response rating, Barnyardgrass [2, 24]: 90
Barnyardgrass plant response rating (0 to 100 scale, 0 is no effect, 100 is complete control) ([2]; Preemergence): 90
Plant response rating, Foxtail, Giant [3, 24]: 90
Foxtail, Giant plant response rating (0 to 100 scale, 0 is no effect, 100 is complete control) ([3]; Preemergence): 90
Plant response rating, Pigweed [4, 24]: 0
Pigweed plant response rating (0 to 100 scale, 0 is no effect, 100 is complete control) ([4]; Preemergence): 0
Plant response rating, Ragweed [5, 24]: 0
Plant response rating, Ryegrass, Italian [6, 24]: 0
Ryegrass, Italian plant response rating (0 to 100 scale, 0 is no effect, 100 is complete control) ([6]; Preemergence): 30
Plant response rating, Galium [7, 25]: 20
Plant response rating, Galium [7, 26]: 30
Plant response rating, Kochia [8, 25]: 0
Plant response rating, Kochia [8, 26]: 30
Plant response rating, Barnyardgrass [9, 25]: 90
Plant response rating, Barnyardgrass [9, 26]: 90
Plant response rating, Blackgrass [10, 25]: 50
Plant response rating, Blackgrass [10, 26]: 70
Plant response rating, Corn [11, 25]: 50
Plant response rating, Corn [11, 26]: 70
Plant response rating, Foxtail, Giant [12, 25]: 90
Plant response rating, Foxtail, Giant [12, 26]: 90
Plant response rating, Pigweed [13, 25]: 0
Plant response rating, Pigweed [13, 26]: 0
Plant response rating, Ragweed [14, 25]: 0
Plant response rating, Ragweed [14, 26]: 0
Plant response rating, Ryegrass, Italian [15, 25]: 30
Plant response rating, Ryegrass, Italian [15, 26]: 30
Plant response rating, Wheat [16, 25]: 20
Plant response rating, Wheat [16, 26]: 70
Plant response rating, Barnyardgrass [17]: 60
Plant response rating, Ducksalad [18]: 90
Plant response rating, Rice [19]: 0
Plant response rating, Sedge, Umbrella [20]: 0

O=C1NCC(c2cc(F)ccc2F)C1C(=O)Nc1ccc(F)cc1F (racemic) [Compound 545]
Plant response rating, Kochia [1, 24]: 0
Kochia plant response rating (0 to 100 scale, 0 is no effect, 100 is complete control) ([1]; Preemergence): 0
Plant response rating, Barnyardgrass [2, 24]: 20
Barnyardgrass plant response rating (0 to 100 scale, 0 is no effect, 100 is complete control) ([2]; Preemergence): 70
Plant response rating, Foxtail, Giant [3, 24]: 80
Foxtail, Giant plant response rating (0 to 100 scale, 0 is no effect, 100 is complete control) ([3]; Preemergence): 90
Plant response rating, Pigweed [4, 24]: 0
Pigweed plant response rating (0 to 100 scale, 0 is no effect, 100 is complete control) ([4]; Preemergence): 0
Plant response rating, Ragweed [5, 24]: 0
Ragweed plant response rating (0 to 100 scale, 0 is no effect, 100 is complete control) ([5]; Preemergence): 0
Plant response rating, Ryegrass, Italian [6, 24]: 0
Ryegrass, Italian plant response rating (0 to 100 scale, 0 is no effect, 100 is complete control) ([6]; Preemergence): 0
Plant response rating, Galium [7, 25]: 0
Plant response rating, Galium [7, 26]: 0
Plant response rating, Kochia [8, 25]: 0
Plant response rating, Kochia [8, 26]: 0
Plant response rating, Barnyardgrass [9, 25]: 0
Plant response rating, Barnyardgrass [9, 26]: 80
Plant response rating, Blackgrass [10, 25]: 0
Plant response rating, Blackgrass [10, 26]: 0
Plant response rating, Corn [11, 25]: 0
Plant response rating, Corn [11, 26]: 0
Plant response rating, Foxtail, Giant [12, 25]: 0
Plant response rating, Foxtail, Giant [12, 26]: 70
Plant response rating, Pigweed [13, 25]: 0
Plant response rating, Pigweed [13, 26]: 0
Plant response rating, Ragweed [14, 25]: 0
Plant response rating, Ragweed [14, 26]: 0
Plant response rating, Ryegrass, Italian [15, 25]: 0
Plant response rating, Ryegrass, Italian [15, 26]: 0
Plant response rating, Wheat [16, 25]: 0
Plant response rating, Wheat [16, 26]: 0
Plant response rating, Barnyardgrass [17]: 0
Plant response rating, Ducksalad [18]: 0
Plant response rating, Rice [19]: 0
Plant response rating, Sedge, Umbrella [20]: 0
